Several values for one entry are separate records, joined by “and”; a condition that tells them apart may be missing. Equal values may be shown once. Read-outs that look alike come from different tables or passages of the source. Starred links: 1 amine or outer side, 2 acyl side, 3 side chain; linkers in the order of their positions; H or OH if unused. Non-standard residues stand in square brackets, D forms with d. Residues, ends and D or L forms follow the SMILES beside them. *: point of attachment. X2 = CCCCC[C@H](O*)C(=O)OCc1ccccc1; X1 = CCCCC[C@H](O[*:1])C(=O)[*:2]; Ahp(2) = CCCCC[C@H](N)C(=O)O; dNMeA = CN[C@H](C)C(=O)O; Boc = CC(C)(C)OC(=O)*
Key:
[1] = PAMPA, 500 uM
PAMPA [2] = conditions: UV detection
PAMPA [3] = conditions: UV detection, initial concentration 500 uM
[4] = initial concentration 500 uM, UV detection
in vitro = conditions: PAMPA, Papp
[5] = calculated using Supplement Equation 1, UV detection
[6] = UV detection

Compound: CCCCC[C@H](OC(=O)[C@@H](C)N(C)C(=O)[C@H](CCCCC)OC(=O)[C@@H](C)N(C)C(=O)[C@H](CCCCC)OC(=O)[C@@H](C)N(C)C(=O)[C@H](CCCCC)OC(=O)[C@@H](C)N(C)C(=O)[C@H](CCCCC)OC(=O)[C@@H](C)N(C)C(=O)OC(C)(C)C)C(=O)OCc1ccccc1 [Compound L1.5]
- Δ % diffusion [1]: ↑4%
- Papp (PAMPA [2]; Papp (x 10^-6 cm/s) / experiment 1): 2.29 ×10⁻⁶ cm/s
- Papp (PAMPA [2]; Papp (x 10^-6 cm/s) / experiment 2): 1.55 ×10⁻⁶ cm/s
- Papp (PAMPA [2]; Papp (x 10^-6 cm/s) / experiment 3): 1.77 ×10⁻⁶ cm/s
- Papp (PAMPA [2]; Papp (x 10^-6 cm/s) / experiment 4): 1.78 ×10⁻⁶ cm/s
- Papp (PAMPA [2]; Papp (x 10^-6 cm/s) / experiment 5): 1.56 ×10⁻⁶ cm/s
- Papp (PAMPA [2]; Papp (x 10^-6 cm/s) / experiment 6): 1.9 ×10⁻⁶ cm/s
- Papp (PAMPA [2]; Papp (x 10^-6 cm/s) / experiment 7): 1.61 ×10⁻⁶ cm/s
- Papp (PAMPA [2]; Papp (x 10^-6 cm/s) / experiment 8): 1.79 ×10⁻⁶ cm/s
- Papp (PAMPA [2]; Papp (x 10^-6 cm/s) / experiment 9): 1.89 ×10⁻⁶ cm/s
- Papp (PAMPA [2]; Papp (x 10^-6 cm/s) / experiment 10): 1.94 ×10⁻⁶ cm/s
- Acceptor Concentration (PAMPA [3]; Acceptor Concentration (uM) / experiment 1): 50.2 µM
- Acceptor Concentration (PAMPA [3]; Acceptor Concentration (uM) / experiment 2): 38.4 µM
- Acceptor Concentration (PAMPA [3]; Acceptor Concentration (uM) / experiment 3): 40.2 µM
- Acceptor Concentration (PAMPA [3]; Acceptor Concentration (uM) / experiment 4): 40.8 µM
- Acceptor Concentration (PAMPA [3]; Acceptor Concentration (uM) / experiment 5): 37.5 µM
- Acceptor Concentration (PAMPA [3]; Acceptor Concentration (uM) / experiment 6): 47.1 µM
- Acceptor Concentration (PAMPA [3]; Acceptor Concentration (uM) / experiment 7): 40.3 µM
- Acceptor Concentration (PAMPA [3]; Acceptor Concentration (uM) / experiment 8): 41 µM
- Acceptor Concentration (PAMPA [3]; Acceptor Concentration (uM) / experiment 9): 45.3 µM
- Acceptor Concentration (PAMPA [3]; Acceptor Concentration (uM) / experiment 10): 48 µM
- donor concentration after incubation ([4]; Well 1 / [donor], Well 1, standard curve): 366 µM and 419 µM
- donor concentration after incubation ([4]; Well 2 / [donor], Well 2, standard curve): 425 µM and 429 µM
- donor concentration after incubation ([4]; Well 3 / [donor], Well 3, standard curve): 387 µM and 389 µM
- donor concentration after incubation ([4]; Well 4 / [donor], Well 4, standard curve): 390 µM and 406 µM
- donor concentration after incubation ([4]; Well 5 / [donor], Well 5, standard curve): 412 µM and 419 µM
- Papp at 500 uM (in vitro): 1.81 ± 0.22 ×10⁻⁶ cm/s
- %T ([5]; Well 1 / %T, Well 1): 0.33% and 0.28%
- %T ([5]; Well 2 / %T, Well 2): 0.24% and 0.25%
- %T ([5]; Well 3 / %T, Well 3): 0.27%
- %T ([5]; Well 4 / %T, Well 4): 0.27% and 0.29%
- %T ([5]; Well 5 / %T, Well 5): 0.24% and 0.29%
- % recovery ([6]; Well 1 / %R, Well 1): 83% and 93%
- % recovery ([6]; Well 2 / %R, Well 2): 93% and 94%
- % recovery ([6]; Well 3 / %R, Well 3): 85% and 86%
- % recovery ([6]; Well 4 / %R, Well 4): 86% and 90%
- % recovery ([6]; Well 5 / %R, Well 5): 90% and 93%

Compound: CCCCC[C@H](NC(=O)[C@@H](C)N(C)C(=O)OC(C)(C)C)C(=O)N(C)[C@H](C)C(=O)O[C@@H](CCCCC)C(=O)N(C)[C@H](C)C(=O)O[C@@H](CCCCC)C(=O)N(C)[C@H](C)C(=O)O[C@@H](CCCCC)C(=O)OCc1ccccc1 [Compound L2.1] (Boc-[dNMeA][Ahp(2)][dNMeA][X1][dNMeA][X1][dNMeA]-X2)
- LogPapp [1]: -5.40 ± 0.05
- Δ % diffusion [1]: ↑19%
- Papp (PAMPA [2]; Papp (x 10^-6 cm/s) / [row 1]): 3.57 ×10⁻⁶ cm/s
- Papp (PAMPA [2]; Papp (x 10^-6 cm/s) / [row 2]): 4.24 ×10⁻⁶ cm/s
- Papp (PAMPA [2]; Papp (x 10^-6 cm/s) / [row 3]): 3.98 ×10⁻⁶ cm/s
- Papp (PAMPA [2]; Papp (x 10^-6 cm/s) / [row 4]): 4.55 ×10⁻⁶ cm/s
- Papp (PAMPA [2]; Papp (x 10^-6 cm/s) / [row 5]): 4.01 ×10⁻⁶ cm/s
- Papp (PAMPA [2]; Papp (x 10^-6 cm/s) / [row 6]): 3.22 ×10⁻⁶ cm/s
- Papp (PAMPA [2]; Papp (x 10^-6 cm/s) / [row 7]): 3.32 ×10⁻⁶ cm/s
- Papp (PAMPA [2]; Papp (x 10^-6 cm/s) / [row 8]): 4.45 ×10⁻⁶ cm/s
- Papp (PAMPA [2]; Papp (x 10^-6 cm/s) / [row 9]): 4.33 ×10⁻⁶ cm/s
- Papp (PAMPA [2]; Papp (x 10^-6 cm/s) / [row 10]): 4.04 ×10⁻⁶ cm/s
- Acceptor Concentration (PAMPA [3]; Acceptor Concentration (uM) / [row 1]): 83.2 µM
- Acceptor Concentration (PAMPA [3]; Acceptor Concentration (uM) / [row 2]): 94.6 µM
- Acceptor Concentration (PAMPA [3]; Acceptor Concentration (uM) / [row 3]): 90.8 µM
- Acceptor Concentration (PAMPA [3]; Acceptor Concentration (uM) / [row 4]): 98.2 µM
- Acceptor Concentration (PAMPA [3]; Acceptor Concentration (uM) / [row 5]): 93.2 µM
- Acceptor Concentration (PAMPA [3]; Acceptor Concentration (uM) / [row 6]): 76.9 µM
- Acceptor Concentration (PAMPA [3]; Acceptor Concentration (uM) / [row 7]): 74.6 µM
- Acceptor Concentration (PAMPA [3]; Acceptor Concentration (uM) / [row 8]): 97.5 µM
- Acceptor Concentration (PAMPA [3]; Acceptor Concentration (uM) / [row 9]): 85.3 µM
- Acceptor Concentration (PAMPA [3]; Acceptor Concentration (uM) / [row 10]): 83.9 µM
- donor concentration after incubation ([4]; Well 1 / [donor], Well 1): 402 µM and 418 µM
- donor concentration after incubation ([4]; Well 2 / [donor], Well 2): 377 µM and 393 µM
- donor concentration after incubation ([4]; Well 3 / [donor], Well 3): 388 µM and 368 µM
- donor concentration after incubation ([4]; Well 4 / [donor], Well 4): 363 µM and 335 µM
- donor concentration after incubation ([4]; Well 5 / [donor], Well 5): 395 µM and 356 µM
- Papp at 500 uM (in vitro): 3.97 ± 0.46 ×10⁻⁶ cm/s
- %T ([5]; Well 1 / %T, Well 1): 0.47% and 0.5%
- %T ([5]; Well 2 / %T, Well 2): 0.47% and 0.52%
- %T ([5]; Well 3 / %T, Well 3): 0.49%
- %T ([5]; Well 4 / %T, Well 4): 0.48% and 0.5%
- %T ([5]; Well 5 / %T, Well 5): 0.49% and 0.5%
- % recovery ([6]; Well 1 / %R, Well 1): 97% and 99%
- % recovery ([6]; Well 2 / %R, Well 2): 94%
- % recovery ([6]; Well 3 / %R, Well 3): 96%
- % recovery ([6]; Well 4 / %R, Well 4): 92% and 84%
- % recovery ([6]; Well 5 / %R, Well 5): 98% and 88%

Source: publication PMC11995216, “End-to-End Backbone Cyclization Enhances Passive Permeability of bRo5 Oligomeric Depsipeptides with Nonlinear Size Dependence” (ACS Medicinal Chemistry Letters, 2025)
